The source of these data is patent publication US20110263694A1, “Use of Xanthone Derivatives as a Medicament for Cancer” (MUSEUM NATIONAL D'HISTOIRE NATURELLE, priority 2008, published 2011).

Series [1] concerns ESKOL cells. The series can be described thus: Enrichment in cytoplasmic nucleosomes (DNA cleavage) in ESKOL cells. The settings on record: 2 days, 1 or 10 μg/ml; FIG. 2B. It is filed as cell-based, human. As to the method:
B/ The percentage of enrichment in cytoplasmic nucleosomes was evaluated simultaneously as a surrogate for DNA cleavage.
The detection of cytoplasmic histone-associated DNA fragments (mono- and oligonucleosomes) was performed in cell lysates from aliquots of 20,000 cells using an ELISA with anti-histone and anti-DNA fragment mAbs (Cell Death Detection ELISA^PLUS, Roche Diagnostics, Indianapolis, Ind., USA) as previously described (Billard et al, Leuk Lymphoma 2002; 43: 1991-2002).

The subject of series [2] is B-CLL cells. Description: MTT viability of freshly isolated B-CLL cells. The class given is cell-based, human. To be noted: FIG. 3, 6 B-CLL patients. The procedure:
FIG. 3: The effect of the molecules M1, M2, M4, M5 and M6 on the viability of B-CLL cells was determined. Tumour cells freshly isolated from B-CLL patients were suspended at 2×10^6/ml in complete RPMI-1640 medium and incubated for 48 hours in the presence or absence of either 1 μg/ml (black bars) or 10 μg/ml (gray bars) of the various molecules. MTT was incorporated into the cells during the last 5 hours of incubation and the viability was measured by recording the formation of the formazan precipitate as described in the Examples section. The results are expressed as the percentage of the viability of the treated cells in comparison with control cells incubated with medium alone taken as 100% and represent the mean±SE of 6 B-CLL patients.
Blood samples from B-CLL patients were obtained from the Haematology Department of Hôtel-Dieu hospital (Paris, France) after written informed consent, in accordance with the rules and tenets of the revised Helsinki protocol. Diagnosis was established according to standard clinical and international CLL workshop criteria, including lymphocyte morphology and co-expression of CD5, CD20 and CD23 antigens. A total of 12 patients (6 men and 6 women) with an age ranging 50-84 years (mean±SD: 68±8.8 years) were selected and the time since diagnosis varied between 0 (newly diagnosed patients) and 10 years. The patients were randomly chosen for each type of experiment inasmuch as CD38 and ZAP-70 expression, cytogenetic analysis and mutational VH status were only available for a fraction of them, thus hampering a risk-group analysis. The leukemia B-cells were isolated with purity greater than 96%, as previously described (Zhao et al, Blood 1998; 92: 1031-1043). All the experiments were performed with freshly purified B-CLL leukemia cells.
M1, M2, M4, M5 and M6 were thus tested for their possible action on the viability of these leukemia cells by the MTT assay that relies on the integrity of the mitochondrial succinyl dehydrogenase.
(§1) Leukemia cells from B-CLL patients were adjusted at 2×10^6/ml and 200 μl aliquots were distributed in triplicate samples in the wells of a 96-well microtitration plate and cultured in the absence or presence of the various reagents. After 18 hours of incubation at 37° C. in a humidified atmosphere containing 5% CO2, 20 μl of a 5 mg/ml solution of MTT (Sigma, St Louis, Mo., USA) were added to the wells for an additional 6 hours incubation. The microplates were centrifuged at 400×g for 20 min, the supernatants carefully discarded and 200 μl of DMSO were added to the wells to dissolve the precipitates of formazan. The optical density was measured with the use of a microplate reader (Victor-2, Wallac, Perkin Elmer, Norwalk, Mont., USA) at the wavelength of 540 nm.

Series [3] has as its system ESKOL cells. Description: Annexin V-FITC labelling of ESKOL cells (phosphatidylserine externalisation, flow cytometry). It is filed as cell-based, human. To be noted: 1 μg/ml, 24 hours. The text has this: The induction of apoptosis was further confirmed by assessing the percentage of cells expressing phosphatidylserine at the outer leaflet of the plasma membrane by flow cytometry.
The phosphatidylserine (PS) externalisation, a membrane marker of cells undergoing apoptosis, was quantified by specific binding of FITC-conjugated annexin V (Bender Medsystems, Vienna, Austria), with or without simultaneous labelling with propidium iodide (PI), according to a modification of the technique described by Koopman (Koopman et al, Blood 1994; 84:1415-1420). The percentages of annexin V-FITC positive and PI negative cells were determined by cytometry on an EPICS Altra flow cytometer (Beckman Coulter).
The ESKOL cells (10^6/ml) were cultured in the absence (C=control) or the presence of 1 μg/ml of the various Allanblackia molecules. After 24 hours of incubation, the percentage of cells labelled with Annexin V-FITC was measured by flow cytometry as previously indicated. Results are expressed after subtraction of the value for control unstimulated cells. P values were estimated by Kolmogorov-Smirnov analysis using the Statview software.
On the technique in general: A flow cytometer gives signals particle by particle.

Series [4] deals with normal PBMC. Description: MTT cytotoxicity on normal PBMC. It is filed as cell-based, human. To be noted: 5 or 10 μg/ml, 48 hours; FIG. 5B. The procedure: (§2) FIG. 5: The effect of the compounds M1, M2, M4, M5 and M6 on the viability and apoptosis of normal lymphocytes was evaluated as indicated in the Examples section. A/ PBMC isolated from the blood of normal volunteers were incubated at 2×10^6/ml for 48 hours in the presence of medium alone (grey bar) or containing 1 μg/ml (black bar) or 10 μg/ml (slashed bars) of the different compounds. At the end of the incubation time, the percentage of enrichment in cytoplasmic nucleosomes was evaluated as indicated in the Examples Section. PBMC (A) and purified B lymphocytes (C) from normal blood donors were incubated for 48 hours with medium alone (grey bar) or containing 5 μg/ml (black bar) or 10 μg/ml (slashed bar) of the selected reagents M1, M2, M4 and M6. Viability was estimated after labelling the cells with a 5 hours pulse of MTT and determination of the absorbance at 540 nm as indicated in the Examples Section.
as §1
(§3) Blood samples from healthy donors were obtained from the Institut Francais du Sang as residues from platelet preparations. The healthy blood donors were under 60 years old, according to the French legislation, and therefore they could not be exactly age-matched with the B-CLL patients. PBMC were prepared as described elsewhere (Zhao et al, Blood 1998; 92: 1031-1043) and normal B-lymphocytes were purified by positive selection on anti-CD19-coated magnetic beads according to the specifications of the manufacturer (Dynal, Oslo, Norway) (Kern et al, Blood 2004; 103: 679-688). Their purity usually ranged from 92% to 95%, as estimated by labelling with an anti-CD20-phycoerythrin (PE) antibody, and monocyte contamination never exceeded 2% (Kern et al, Blood 2004; 103: 679-688).

Series [5] relates to histamine H1 receptor. The settings on record: Chairungsrilerd et al 1996; cited from earlier work.
Series [6] relates to human promyelocytic leukemia HL-60 cell line. The settings on record: Matsumoto et al 2003; cited from earlier work.
The test system of series [7] is purified B-lymphocytes. The series can be described thus: MTT cytotoxicity on purified normal B-lymphocytes. It is filed as cell-based, human. To be noted: 5 or 10 μg/ml, 48 hours; FIG. 5C. As to the method:
as §2, §1, §3

For series [8], the system named is human colon cancer DLD-1 cells. To be noted: Matsumoto 2005; cited from earlier work.

As to `COc1c(O)cc2oc3cc(O)c(CC=C(C)C)c(O)c3c(=O)c2c1CC=C(C)C` [M2, α-mangostin], the “DNA breakdown (enrichment in cytoplasmic nucleosomes) in ESKOL cells” value in series [1] was “potent inducers of DNA breakdown”. Moreover, the “viability of B-CLL cells (MTT)” value is “no significant effect” in series [2] (1 μg/ml) and “marked reduction in the viability” in series [2] (10 μg/ml). The “increase in the percentage of Annexin V positive ESKOL cells (in words)” value in series [3] is “significant increase”. Moreover, in series [3] (ESKOL cells, after subtraction of control value), the “% Annexin V+ cells” value turned out to be 15.0%. For the same molecule, in series [4], the “cytotoxic effect on normal PBMC (MTT)” value is “somewhat sensitive”. Further, the “histamine H1 receptor antagonism” value in series [5] was “histamine H1 receptor antagonist”. In series [6], the “apoptosis induction in HL-60 cell line” value was “induces apoptosis”. Moreover, the “cytotoxic effect on purified normal B-lymphocytes (MTT)” value in series [7] is given as “somewhat sensitive”. For the same molecule, the “cell-cycle arrest and apoptosis in DLD-1 cells” value in series [8] was “induces cell-cycle arrest and apoptosis”.
